Legend:
[1] = biological target: Serine/threonine-protein kinase ULK3 (Homo sapiens) (UniProt Q6PHR2); conditions: Compound concentration 1000.0 nM
[2] = biological target: LIM domain kinase 1 (Homo sapiens) (UniProt P53667); conditions: Compound concentration 1000.0 nM
[3] = biological target: Tyrosine-protein kinase Mer (Homo sapiens) (UniProt Q12866); conditions: Compound concentration 1000.0 nM
[4] = biological target: Proto-oncogene tyrosine-protein kinase ROS (Homo sapiens) (UniProt P08922); conditions: Compound concentration 1000.0 nM
[5] = biological target: T1, Muscarinic acetylcholine receptor M4 (Homo sapiens) (UniProt P08173); conditions: Compound concentration 10.0 uM
T1 sequence (whole entry): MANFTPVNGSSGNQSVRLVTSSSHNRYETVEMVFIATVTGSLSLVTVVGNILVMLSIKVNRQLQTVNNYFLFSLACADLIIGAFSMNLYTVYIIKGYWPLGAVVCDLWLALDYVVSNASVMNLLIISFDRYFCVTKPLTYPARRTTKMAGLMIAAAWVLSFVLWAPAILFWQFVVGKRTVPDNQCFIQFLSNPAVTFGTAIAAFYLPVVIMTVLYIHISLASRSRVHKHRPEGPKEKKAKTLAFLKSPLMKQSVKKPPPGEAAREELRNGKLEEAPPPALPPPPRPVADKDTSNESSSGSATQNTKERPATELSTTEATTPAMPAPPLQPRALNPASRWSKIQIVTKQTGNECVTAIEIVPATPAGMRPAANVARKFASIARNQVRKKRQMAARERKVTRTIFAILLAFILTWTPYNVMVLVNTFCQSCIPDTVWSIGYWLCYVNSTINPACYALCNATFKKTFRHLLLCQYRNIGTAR

[6] = biological target: Serine/threonine-protein kinase VRK2 (Homo sapiens) (UniProt Q86Y07); conditions: Compound concentration 1000.0 nM
[7] = biological target: Mitogen-activated protein kinase kinase kinase kinase 3 (Homo sapiens) (UniProt Q8IVH8); conditions: Compound concentration 1000.0 nM
[8] = biological target: Mitogen-activated protein kinase kinase kinase 20 (Homo sapiens) (UniProt Q9NYL2); conditions: Compound concentration 1000.0 nM
[9] = biological target: Serine/threonine-protein kinase Chk2 (Homo sapiens) (UniProt O96017); conditions: Compound concentration 1000.0 nM
[10] = biological target: Tyrosine-protein kinase Blk (Homo sapiens) (UniProt P51451); conditions: Compound concentration 1000.0 nM
[11] = biological target: Fibroblast growth factor receptor 4 (Homo sapiens) (UniProt P22455); conditions: Compound concentration 1000.0 nM
[12] = biological target: Cyclin-dependent kinase 19 (Homo sapiens) (UniProt Q9BWU1); conditions: Compound concentration 1000.0 nM
[13] = biological target: Homeodomain-interacting protein kinase 3 (Homo sapiens) (UniProt Q9H422); conditions: Compound concentration 1000.0 nM
[14] = biological target: Serine/threonine-protein kinase PAK 4 (Homo sapiens) (UniProt O96013); conditions: Compound concentration 1000.0 nM
[15] = biological target: Mitogen-activated protein kinase 13 (Homo sapiens) (UniProt O15264); conditions: Compound concentration 1000.0 nM
[16] = biological target: Dual specificity mitogen-activated protein kinase kinase 2 (Homo sapiens) (UniProt P36507); conditions: Compound concentration 1000.0 nM
[17] = biological target: Serine/threonine-protein kinase Chk1 (Homo sapiens) (UniProt O14757); conditions: Compound concentration 1000.0 nM
[18] = biological target: Serine/threonine-protein kinase SIK1 (Homo sapiens) (UniProt P57059); conditions: Compound concentration 1000.0 nM
[19] = biological target: Cyclin-dependent kinase 16 (Homo sapiens) (UniProt Q00536); conditions: Compound concentration 1000.0 nM
[20] = biological target: Serine/threonine-protein kinase MRCK gamma (Homo sapiens) (UniProt Q6DT37); conditions: Compound concentration 1000.0 nM
[21] = biological target: Tyrosine-protein kinase Fes/Fps (Homo sapiens) (UniProt P07332); conditions: Compound concentration 1000.0 nM
[22] = biological target: Ribosomal protein S6 kinase alpha-5 (Homo sapiens) (UniProt O75582); conditions: Compound concentration 1000.0 nM
[23] = biological target: Mitogen-activated protein kinase 3 (Homo sapiens) (UniProt P27361); conditions: Compound concentration 1000.0 nM
[24] = biological target: Protein kinase C theta type (Homo sapiens) (UniProt Q04759); conditions: Compound concentration 1000.0 nM
[25] = biological target: Tyrosine-protein kinase ABL2 (Homo sapiens) (UniProt P42684); conditions: Compound concentration 1000.0 nM
[26] = biological target: Death-associated protein kinase 1 (Homo sapiens) (UniProt P53355); conditions: Compound concentration 1000.0 nM
[27] = biological target: RAF proto-oncogene serine/threonine-protein kinase (Homo sapiens) (UniProt P04049); conditions: Compound concentration 1000.0 nM
[28] = biological target: Bone morphogenetic protein receptor type-1A (Homo sapiens) (UniProt P36894); conditions: Compound concentration 1000.0 nM
[29] = biological target: Mu-type opioid receptor (Homo sapiens) (UniProt P35372); conditions: Compound concentration 10.0 uM
[30] = test system: Phosphatidylinositol 4,5-bisphosphate 3-kinase catalytic subunit alpha isoform (Homo sapiens), P42336 [E542K]; conditions: Compound concentration 1000.0 nM
[31] = test system: Receptor-type tyrosine-protein kinase FLT3 (Homo sapiens), P36888 [UNDEFINED MUTATION]; conditions: Compound concentration 1000.0 nM
[32] = biological target: Receptor-interacting serine/threonine-protein kinase 1 (Homo sapiens) (UniProt Q13546); conditions: Compound concentration 1000.0 nM
[33] = biological target: Tyrosine-protein kinase ZAP-70 (Homo sapiens) (UniProt P43403); conditions: Compound concentration 1000.0 nM
[34] = biological target: Ribosomal protein S6 kinase alpha-6 (Homo sapiens) (UniProt Q9UK32); conditions: Compound concentration 1000.0 nM
[35] = test system: Receptor-type tyrosine-protein kinase FLT3 (Homo sapiens), P36888 [D835H]; conditions: Compound concentration 1000.0 nM
[36] = test system: Tyrosine-protein kinase ABL1 (Homo sapiens), P00519 [Y253F]; conditions: Compound concentration 1000.0 nM
[37] = biological target: Hormonally up-regulated neu tumor-associated kinase (Homo sapiens) (UniProt P57058); conditions: Compound concentration 1000.0 nM
[38] = biological target: Serine/threonine-protein kinase MARK1 (Homo sapiens) (UniProt Q9P0L2); conditions: Compound concentration 1000.0 nM

Sequence of Cyclin-dependent kinase 19 (Homo sapiens) (Q9BWU1 whole entry): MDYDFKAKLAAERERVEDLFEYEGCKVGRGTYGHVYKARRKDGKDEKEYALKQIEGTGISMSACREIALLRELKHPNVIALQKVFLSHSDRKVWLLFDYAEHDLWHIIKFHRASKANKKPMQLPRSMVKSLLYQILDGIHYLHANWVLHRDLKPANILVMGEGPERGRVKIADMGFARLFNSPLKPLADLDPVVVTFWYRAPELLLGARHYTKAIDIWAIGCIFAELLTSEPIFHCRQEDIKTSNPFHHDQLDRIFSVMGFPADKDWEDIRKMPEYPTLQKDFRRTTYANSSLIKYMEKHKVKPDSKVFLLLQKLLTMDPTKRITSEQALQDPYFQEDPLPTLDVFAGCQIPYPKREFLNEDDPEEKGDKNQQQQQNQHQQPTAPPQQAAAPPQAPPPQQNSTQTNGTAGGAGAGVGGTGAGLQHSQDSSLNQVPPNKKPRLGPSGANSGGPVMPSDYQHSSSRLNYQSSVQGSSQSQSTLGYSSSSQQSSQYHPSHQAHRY
Sequence of Serine/threonine-protein kinase MRCK gamma (Homo sapiens) (Q6DT37 whole entry): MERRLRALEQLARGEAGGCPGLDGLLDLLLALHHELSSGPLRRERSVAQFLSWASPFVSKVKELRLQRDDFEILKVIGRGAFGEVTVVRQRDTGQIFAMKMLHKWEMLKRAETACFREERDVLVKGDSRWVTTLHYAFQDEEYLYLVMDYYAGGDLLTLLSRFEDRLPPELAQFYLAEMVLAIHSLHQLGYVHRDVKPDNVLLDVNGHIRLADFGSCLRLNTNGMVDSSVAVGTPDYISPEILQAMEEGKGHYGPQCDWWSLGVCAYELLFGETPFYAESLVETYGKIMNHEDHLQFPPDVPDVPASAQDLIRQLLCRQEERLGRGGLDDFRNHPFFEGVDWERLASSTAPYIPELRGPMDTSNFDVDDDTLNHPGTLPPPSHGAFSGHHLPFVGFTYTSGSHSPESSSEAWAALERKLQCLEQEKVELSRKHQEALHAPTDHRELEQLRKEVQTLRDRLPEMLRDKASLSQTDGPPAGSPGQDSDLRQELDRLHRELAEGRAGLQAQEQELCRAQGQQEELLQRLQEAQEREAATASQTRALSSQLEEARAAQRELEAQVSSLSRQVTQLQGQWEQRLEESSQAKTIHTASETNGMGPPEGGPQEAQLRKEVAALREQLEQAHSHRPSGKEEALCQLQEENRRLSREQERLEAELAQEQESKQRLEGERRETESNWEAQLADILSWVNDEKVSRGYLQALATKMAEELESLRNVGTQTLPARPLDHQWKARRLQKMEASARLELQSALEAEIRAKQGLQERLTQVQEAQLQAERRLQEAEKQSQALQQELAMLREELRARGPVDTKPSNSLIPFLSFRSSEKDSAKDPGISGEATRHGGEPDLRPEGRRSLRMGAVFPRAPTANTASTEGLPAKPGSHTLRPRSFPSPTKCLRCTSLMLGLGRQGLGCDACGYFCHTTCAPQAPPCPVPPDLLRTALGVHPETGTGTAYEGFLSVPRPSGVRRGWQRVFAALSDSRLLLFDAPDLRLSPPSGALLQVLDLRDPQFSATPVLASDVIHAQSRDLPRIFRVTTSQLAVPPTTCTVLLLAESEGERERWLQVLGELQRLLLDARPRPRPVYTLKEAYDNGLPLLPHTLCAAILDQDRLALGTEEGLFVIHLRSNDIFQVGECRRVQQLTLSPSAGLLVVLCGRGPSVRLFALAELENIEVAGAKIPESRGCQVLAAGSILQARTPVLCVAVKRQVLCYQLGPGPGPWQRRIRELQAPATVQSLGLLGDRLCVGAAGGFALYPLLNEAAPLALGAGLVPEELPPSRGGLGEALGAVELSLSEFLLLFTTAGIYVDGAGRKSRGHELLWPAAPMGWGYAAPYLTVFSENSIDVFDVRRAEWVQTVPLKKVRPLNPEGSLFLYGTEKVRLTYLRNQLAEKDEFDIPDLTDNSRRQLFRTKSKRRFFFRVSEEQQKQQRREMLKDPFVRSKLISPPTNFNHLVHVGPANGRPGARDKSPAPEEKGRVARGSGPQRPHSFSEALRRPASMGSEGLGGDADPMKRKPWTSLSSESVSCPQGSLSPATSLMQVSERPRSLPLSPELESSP
Sequence of Receptor-interacting serine/threonine-protein kinase 1 (Homo sapiens) (Q13546 whole entry): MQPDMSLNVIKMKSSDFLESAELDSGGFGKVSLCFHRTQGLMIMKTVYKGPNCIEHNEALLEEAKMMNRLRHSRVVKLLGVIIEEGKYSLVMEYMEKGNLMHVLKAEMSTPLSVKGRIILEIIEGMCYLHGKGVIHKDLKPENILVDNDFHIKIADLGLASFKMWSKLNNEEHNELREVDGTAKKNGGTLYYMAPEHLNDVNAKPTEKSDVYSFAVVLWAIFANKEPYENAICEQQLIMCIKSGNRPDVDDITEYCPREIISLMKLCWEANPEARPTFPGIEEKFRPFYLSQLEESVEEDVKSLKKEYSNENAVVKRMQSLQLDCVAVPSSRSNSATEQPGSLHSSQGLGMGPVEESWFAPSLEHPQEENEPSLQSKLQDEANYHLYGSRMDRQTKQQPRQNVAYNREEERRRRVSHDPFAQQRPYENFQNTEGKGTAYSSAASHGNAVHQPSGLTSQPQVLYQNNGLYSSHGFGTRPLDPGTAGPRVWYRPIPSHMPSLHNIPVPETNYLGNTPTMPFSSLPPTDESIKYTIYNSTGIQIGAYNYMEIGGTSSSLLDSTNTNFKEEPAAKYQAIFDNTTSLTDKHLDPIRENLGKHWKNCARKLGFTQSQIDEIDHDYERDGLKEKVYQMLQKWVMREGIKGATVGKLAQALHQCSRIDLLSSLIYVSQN
Sequence of Serine/threonine-protein kinase Chk2 (Homo sapiens) (O96017 whole entry): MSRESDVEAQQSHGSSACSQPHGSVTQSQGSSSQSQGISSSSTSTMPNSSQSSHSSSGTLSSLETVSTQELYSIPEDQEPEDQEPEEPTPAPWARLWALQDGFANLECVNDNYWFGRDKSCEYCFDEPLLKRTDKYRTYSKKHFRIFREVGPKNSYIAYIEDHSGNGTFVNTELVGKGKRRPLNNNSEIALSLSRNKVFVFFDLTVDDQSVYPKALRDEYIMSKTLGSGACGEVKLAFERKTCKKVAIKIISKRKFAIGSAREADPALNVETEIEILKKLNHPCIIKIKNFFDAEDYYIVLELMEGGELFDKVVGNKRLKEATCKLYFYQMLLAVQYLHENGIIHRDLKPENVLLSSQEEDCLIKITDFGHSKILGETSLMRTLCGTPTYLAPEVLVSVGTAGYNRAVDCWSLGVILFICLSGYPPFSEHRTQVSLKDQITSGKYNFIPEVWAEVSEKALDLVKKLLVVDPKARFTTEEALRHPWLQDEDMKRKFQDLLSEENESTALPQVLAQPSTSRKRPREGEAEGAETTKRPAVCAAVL
Sequence of Tyrosine-protein kinase Blk (Homo sapiens) (P51451 2-505 limits assumed): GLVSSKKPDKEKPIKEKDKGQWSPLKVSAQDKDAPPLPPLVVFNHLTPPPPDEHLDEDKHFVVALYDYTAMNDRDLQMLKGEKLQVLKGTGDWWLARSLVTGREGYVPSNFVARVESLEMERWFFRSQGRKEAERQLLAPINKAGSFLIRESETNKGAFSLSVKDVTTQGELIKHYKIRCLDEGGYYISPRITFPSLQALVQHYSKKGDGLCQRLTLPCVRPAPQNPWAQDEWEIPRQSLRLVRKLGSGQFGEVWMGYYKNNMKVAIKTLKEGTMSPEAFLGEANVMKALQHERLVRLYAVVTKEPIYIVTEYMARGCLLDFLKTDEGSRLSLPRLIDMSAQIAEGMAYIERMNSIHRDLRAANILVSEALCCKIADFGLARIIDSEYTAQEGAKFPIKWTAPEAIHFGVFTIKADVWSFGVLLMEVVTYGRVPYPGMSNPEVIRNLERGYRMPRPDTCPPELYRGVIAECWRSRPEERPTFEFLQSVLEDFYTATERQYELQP
Sequence of Ribosomal protein S6 kinase alpha-6 (Homo sapiens) (Q9UK32 whole entry): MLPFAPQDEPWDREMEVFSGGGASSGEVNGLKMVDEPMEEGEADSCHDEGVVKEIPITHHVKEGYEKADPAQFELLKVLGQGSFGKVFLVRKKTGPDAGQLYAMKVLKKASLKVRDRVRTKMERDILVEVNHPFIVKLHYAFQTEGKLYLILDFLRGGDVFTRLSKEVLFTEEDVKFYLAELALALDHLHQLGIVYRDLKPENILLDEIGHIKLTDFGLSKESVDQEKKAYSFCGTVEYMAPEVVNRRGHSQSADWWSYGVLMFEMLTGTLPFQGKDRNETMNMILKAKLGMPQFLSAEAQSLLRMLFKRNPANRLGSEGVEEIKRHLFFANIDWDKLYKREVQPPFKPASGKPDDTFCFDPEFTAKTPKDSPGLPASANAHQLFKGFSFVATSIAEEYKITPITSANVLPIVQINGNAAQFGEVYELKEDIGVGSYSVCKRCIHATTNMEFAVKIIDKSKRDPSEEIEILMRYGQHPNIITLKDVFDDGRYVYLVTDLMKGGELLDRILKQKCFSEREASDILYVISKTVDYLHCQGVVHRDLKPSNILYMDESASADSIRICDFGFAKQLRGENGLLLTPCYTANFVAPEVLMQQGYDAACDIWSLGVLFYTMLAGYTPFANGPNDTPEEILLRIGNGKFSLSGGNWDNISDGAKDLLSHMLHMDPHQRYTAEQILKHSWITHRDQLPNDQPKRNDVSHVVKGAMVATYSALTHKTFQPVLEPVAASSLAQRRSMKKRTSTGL
Sequence of Dual specificity mitogen-activated protein kinase kinase 2 (Homo sapiens) (P36507 whole entry): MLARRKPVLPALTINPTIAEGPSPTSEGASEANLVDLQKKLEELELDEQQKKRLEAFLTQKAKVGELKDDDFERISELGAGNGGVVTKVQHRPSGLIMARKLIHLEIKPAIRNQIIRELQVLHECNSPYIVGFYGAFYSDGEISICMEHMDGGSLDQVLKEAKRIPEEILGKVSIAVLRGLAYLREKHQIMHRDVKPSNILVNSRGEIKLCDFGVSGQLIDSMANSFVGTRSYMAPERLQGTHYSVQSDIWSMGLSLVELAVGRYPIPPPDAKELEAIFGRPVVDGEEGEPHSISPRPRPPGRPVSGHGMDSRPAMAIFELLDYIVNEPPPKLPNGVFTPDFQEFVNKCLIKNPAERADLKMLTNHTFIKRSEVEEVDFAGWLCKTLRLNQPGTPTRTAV

| Compound | residual activity [1] | residual activity [2] | residual activity [3] | residual activity [4] | inhibition [5] | residual activity [6] | residual activity [7] | residual activity [8] | residual activity [9] | residual activity [10] | residual activity [11] | residual activity [12] | residual activity [13] | residual activity [14] | residual activity [15] | residual activity [16] | residual activity [17] | residual activity [18] | residual activity [19] | residual activity [20] | also measured |
| --- | --- | --- | --- | --- | --- | --- | --- | --- | --- | --- | --- | --- | --- | --- | --- | --- | --- | --- | --- | --- | --- |
| CCC(=N\O)/C(C)=C/c1ccc(F)c(C)c1 [A-226] | 100% | 100% | 100% | 88% | 15.4% | 100% | 98% | 76% | 90% | 91% | 83% | 100% | 100% | 76% | 100% | 92% | 83% | 96% | 100% | 85% | residual activity [21]: 93%; residual activity [22]: 78%; residual activity [23]: 100%; residual activity [24]: 88%; residual activity [25]: 92%; residual activity [26]: 97%; residual activity [27]: 99%; residual activity [28]: 100%; inhibition [29]: -1.52%; residual activity [30]: 54%; residual activity [31]: 100%; residual activity [32]: 100%; residual activity [33]: 38%; residual activity [34]: 98%; residual activity [35]: 89%; residual activity [36]: 100%; residual activity [37]: 91%; residual activity [38]: 99% |
| CCC(=N\O)/C(C)=C/c1ccc(F)cc1 [A-079] | 74% | 78% | 100% | 87% | 18.2% | 74% | 100% | 84% | 85% | 87% | 96% | 79% | 78% | 100% | 92% | 100% | 83% | 80% | 86% | 73% | residual activity [21]: 73%; residual activity [22]: 100%; residual activity [23]: 69%; residual activity [24]: 80%; residual activity [25]: 82%; residual activity [26]: 100%; residual activity [27]: 91%; residual activity [28]: 86%; inhibition [29]: -5.9%; residual activity [30]: 100%; residual activity [31]: 67%; residual activity [32]: 82%; residual activity [33]: 96%; residual activity [34]: 94%; residual activity [35]: 100%; residual activity [36]: 80%; residual activity [37]: 76%; residual activity [38]: 100% |
